Starred links: 1 amine or outer side, 2 acyl side, 3 side chain; linkers in the order of their positions; H or OH if unused. Positions of bridges follow the written chain, without caps; N, C: chain ends. Non-standard residues stand in square brackets, D forms with d. Residues, ends and D or L forms follow the SMILES beside them. Hag = O=C([C@H](CCC=[*:3])N[*:1])[*:2]; Phe(3-F) = N[C@@H](Cc1cccc(F)c1)C(=O)O; AllylGly = C=CC[C@H](N)C(=O)O; Orn = NCCC[C@H](N)C(=O)O; Ac4c = NC1(C(=O)O)CCC1
What follows are compounds tested against T1, Menin/Histone-lysine N-methyltransferase MLL (Homo sapiens, UniProt O00255) (assay: Inhibition of Menin-MLL protein-protein interaction (unknown origin) preincubated for 1 hr in presence of FLSN-MLL4-43 peptide followed by compound addition and measured after 1 hr by fluorescence polarization assay).
T1 sequence (O00255 whole entry): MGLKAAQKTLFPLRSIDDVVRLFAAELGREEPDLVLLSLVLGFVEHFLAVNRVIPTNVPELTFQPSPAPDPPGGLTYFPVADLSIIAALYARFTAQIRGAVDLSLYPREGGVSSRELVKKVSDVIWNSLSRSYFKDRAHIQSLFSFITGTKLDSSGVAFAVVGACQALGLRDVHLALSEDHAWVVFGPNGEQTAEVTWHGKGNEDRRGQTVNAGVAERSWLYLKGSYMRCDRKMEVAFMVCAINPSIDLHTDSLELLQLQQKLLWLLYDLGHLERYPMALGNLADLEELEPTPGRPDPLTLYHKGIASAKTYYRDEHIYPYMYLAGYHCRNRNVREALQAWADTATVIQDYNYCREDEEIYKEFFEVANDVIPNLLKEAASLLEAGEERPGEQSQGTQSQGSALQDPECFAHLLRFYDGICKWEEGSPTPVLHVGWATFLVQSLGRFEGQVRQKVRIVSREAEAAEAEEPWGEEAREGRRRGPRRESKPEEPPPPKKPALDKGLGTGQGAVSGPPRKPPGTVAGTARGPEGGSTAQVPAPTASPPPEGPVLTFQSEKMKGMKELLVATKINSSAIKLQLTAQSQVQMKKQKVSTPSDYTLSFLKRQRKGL
T1 sequence (Q03164 1-2718 partner limits assumed): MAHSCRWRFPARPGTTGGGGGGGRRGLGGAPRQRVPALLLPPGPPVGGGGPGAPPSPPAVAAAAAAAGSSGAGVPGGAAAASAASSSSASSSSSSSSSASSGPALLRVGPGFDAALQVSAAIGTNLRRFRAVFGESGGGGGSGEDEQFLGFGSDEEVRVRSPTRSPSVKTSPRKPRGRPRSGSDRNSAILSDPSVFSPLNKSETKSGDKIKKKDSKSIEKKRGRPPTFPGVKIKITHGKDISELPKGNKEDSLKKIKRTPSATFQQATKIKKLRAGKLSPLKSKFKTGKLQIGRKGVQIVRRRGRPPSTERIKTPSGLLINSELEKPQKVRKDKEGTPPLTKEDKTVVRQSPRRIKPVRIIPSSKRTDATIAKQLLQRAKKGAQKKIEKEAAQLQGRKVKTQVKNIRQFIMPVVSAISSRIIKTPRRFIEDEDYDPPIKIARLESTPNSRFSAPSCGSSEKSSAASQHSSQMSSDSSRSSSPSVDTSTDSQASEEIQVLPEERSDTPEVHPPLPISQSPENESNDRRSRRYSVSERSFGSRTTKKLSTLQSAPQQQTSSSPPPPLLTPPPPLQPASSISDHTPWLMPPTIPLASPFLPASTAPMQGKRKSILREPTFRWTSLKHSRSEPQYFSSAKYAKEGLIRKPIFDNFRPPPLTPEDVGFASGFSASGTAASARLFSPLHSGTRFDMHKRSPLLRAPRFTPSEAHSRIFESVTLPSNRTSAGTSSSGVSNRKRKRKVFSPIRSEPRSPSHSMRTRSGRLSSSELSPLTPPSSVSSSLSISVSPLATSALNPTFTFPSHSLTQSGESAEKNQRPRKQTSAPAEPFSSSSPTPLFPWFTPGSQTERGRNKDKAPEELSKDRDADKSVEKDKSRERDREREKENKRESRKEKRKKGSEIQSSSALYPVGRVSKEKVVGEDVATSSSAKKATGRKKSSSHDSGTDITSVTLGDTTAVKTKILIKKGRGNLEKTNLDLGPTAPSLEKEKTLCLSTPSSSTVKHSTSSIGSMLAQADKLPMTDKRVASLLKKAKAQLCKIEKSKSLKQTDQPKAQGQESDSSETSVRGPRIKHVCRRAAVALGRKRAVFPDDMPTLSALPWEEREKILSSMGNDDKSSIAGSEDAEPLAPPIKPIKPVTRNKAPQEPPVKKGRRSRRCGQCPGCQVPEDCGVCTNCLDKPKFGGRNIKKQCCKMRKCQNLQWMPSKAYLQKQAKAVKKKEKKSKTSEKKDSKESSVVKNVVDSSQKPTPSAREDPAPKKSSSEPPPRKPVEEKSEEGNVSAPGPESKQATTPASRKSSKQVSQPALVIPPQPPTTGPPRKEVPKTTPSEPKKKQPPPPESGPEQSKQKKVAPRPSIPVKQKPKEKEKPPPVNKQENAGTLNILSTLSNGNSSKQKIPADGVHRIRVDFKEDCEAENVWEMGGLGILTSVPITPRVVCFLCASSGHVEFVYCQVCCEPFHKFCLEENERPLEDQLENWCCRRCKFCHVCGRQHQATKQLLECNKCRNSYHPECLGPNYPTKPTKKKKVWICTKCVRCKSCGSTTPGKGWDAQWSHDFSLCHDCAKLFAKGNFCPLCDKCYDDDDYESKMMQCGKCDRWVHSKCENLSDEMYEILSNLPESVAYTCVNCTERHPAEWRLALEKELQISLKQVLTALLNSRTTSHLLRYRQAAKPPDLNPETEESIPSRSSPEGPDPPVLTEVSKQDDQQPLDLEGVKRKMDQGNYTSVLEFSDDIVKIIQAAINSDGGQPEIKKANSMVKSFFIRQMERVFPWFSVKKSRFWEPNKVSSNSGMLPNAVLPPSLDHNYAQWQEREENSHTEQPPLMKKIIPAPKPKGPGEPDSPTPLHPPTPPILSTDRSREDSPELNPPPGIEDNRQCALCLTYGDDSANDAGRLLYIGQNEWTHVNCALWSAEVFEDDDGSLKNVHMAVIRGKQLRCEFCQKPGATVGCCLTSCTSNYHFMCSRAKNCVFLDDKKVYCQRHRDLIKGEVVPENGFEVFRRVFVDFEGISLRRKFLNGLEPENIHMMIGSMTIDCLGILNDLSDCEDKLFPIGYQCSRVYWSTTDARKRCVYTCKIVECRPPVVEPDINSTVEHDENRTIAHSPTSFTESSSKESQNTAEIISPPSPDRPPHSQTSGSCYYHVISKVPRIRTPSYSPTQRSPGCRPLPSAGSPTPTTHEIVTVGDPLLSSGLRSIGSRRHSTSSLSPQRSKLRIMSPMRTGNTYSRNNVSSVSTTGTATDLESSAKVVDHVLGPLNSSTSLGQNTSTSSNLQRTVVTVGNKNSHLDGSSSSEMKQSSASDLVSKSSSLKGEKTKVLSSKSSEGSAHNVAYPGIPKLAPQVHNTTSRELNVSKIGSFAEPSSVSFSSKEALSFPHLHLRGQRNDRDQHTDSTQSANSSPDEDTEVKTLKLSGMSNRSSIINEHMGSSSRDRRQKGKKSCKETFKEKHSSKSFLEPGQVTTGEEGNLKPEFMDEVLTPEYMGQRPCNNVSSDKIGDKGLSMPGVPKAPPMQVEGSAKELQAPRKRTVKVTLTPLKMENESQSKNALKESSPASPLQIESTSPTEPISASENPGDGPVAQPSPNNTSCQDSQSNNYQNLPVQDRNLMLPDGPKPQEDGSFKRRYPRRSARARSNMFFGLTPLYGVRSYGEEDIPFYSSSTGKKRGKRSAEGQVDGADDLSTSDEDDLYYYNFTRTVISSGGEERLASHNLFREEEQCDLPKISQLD
T1 sequence (Q03164 2719-3969 partner limits assumed): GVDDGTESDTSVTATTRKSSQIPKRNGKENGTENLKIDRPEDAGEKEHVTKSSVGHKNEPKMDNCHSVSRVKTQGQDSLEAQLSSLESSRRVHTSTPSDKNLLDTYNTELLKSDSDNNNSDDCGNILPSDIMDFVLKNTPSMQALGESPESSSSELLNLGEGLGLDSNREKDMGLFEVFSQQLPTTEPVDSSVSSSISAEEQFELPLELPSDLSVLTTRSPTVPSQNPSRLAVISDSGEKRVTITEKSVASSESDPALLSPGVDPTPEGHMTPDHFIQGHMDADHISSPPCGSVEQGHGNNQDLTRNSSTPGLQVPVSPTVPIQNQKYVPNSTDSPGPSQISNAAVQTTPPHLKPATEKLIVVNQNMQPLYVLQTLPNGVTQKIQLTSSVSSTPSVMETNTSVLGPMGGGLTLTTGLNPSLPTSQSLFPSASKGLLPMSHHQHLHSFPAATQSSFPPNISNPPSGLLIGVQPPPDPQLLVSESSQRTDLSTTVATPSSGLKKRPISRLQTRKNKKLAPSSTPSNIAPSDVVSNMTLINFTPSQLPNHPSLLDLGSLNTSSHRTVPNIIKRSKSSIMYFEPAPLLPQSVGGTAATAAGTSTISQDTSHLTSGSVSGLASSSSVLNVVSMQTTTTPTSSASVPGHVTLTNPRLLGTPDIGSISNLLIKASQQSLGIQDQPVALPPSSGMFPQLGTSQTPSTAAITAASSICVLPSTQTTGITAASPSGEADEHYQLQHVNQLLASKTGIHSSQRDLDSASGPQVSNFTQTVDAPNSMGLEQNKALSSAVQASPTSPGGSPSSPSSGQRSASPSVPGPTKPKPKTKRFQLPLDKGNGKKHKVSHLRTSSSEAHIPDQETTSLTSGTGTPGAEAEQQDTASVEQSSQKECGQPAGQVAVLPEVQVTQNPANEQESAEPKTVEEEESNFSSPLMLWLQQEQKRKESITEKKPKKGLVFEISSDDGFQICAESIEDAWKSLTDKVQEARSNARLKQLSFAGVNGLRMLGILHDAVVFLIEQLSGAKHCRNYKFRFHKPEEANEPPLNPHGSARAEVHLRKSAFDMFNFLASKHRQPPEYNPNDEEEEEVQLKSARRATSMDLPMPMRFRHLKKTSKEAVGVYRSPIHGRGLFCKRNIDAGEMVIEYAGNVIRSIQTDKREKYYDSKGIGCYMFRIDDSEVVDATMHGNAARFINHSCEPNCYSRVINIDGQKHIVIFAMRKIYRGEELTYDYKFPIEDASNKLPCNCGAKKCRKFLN
An IC50 of 4.6 nM was found for `CC(=O)N[C@@H](C)C(=O)N[C@@H](CCCNC(=N)N)C(=O)N[C@@H](Cc1c[nH]c2ccccc12)C(=O)N[C@H]1CCCC[C@@H](C(=O)N2CCC[C@H]2C(=O)N[C@@H](CCCN)C(=O)N[C@@H](CCCNC(=N)N)C(=O)N[C@@H](CCCNC(=N)N)C(=O)N[C@@H](CCCNC(=N)N)C(N)=O)NC(=O)C2(CCC2)NC(=O)[C@@H]2CCCN2C(=O)[C@H](Cc2cccc(F)c2)NC1=O` in this work.
An IC50 of 14 nM was found for `CC(=O)N[C@@H](C)C(=O)N[C@@H](CCCNC(=N)N)C(=O)N[C@@H](Cc1c[nH]c2ccccc12)C(=O)N[C@H]1CCCC[C@@H](C(=O)N2CCC[C@H]2C(=O)N[C@@H](CCCN)C(=O)N[C@@H](CCCNC(=N)N)C(N)=O)NC(=O)C2(CCC2)NC(=O)[C@@H]2CCCN2C(=O)[C@H](Cc2cccc(F)c2)NC1=O` in this work.
An IC50 of 569 nM was found for `CC(=O)N[C@@H](CO)C(=O)N[C@@H](C)C(=O)N[C@@H](CCCNC(=N)N)C(=O)N[C@@H](Cc1c[nH]c2ccccc12)C(=O)N[C@H]1CCCC[C@@H](C(=O)N2CCC[C@H]2C(=O)N[C@@H](CCCN)C(N)=O)NC(=O)C2(CCC2)NC(=O)[C@@H]2CCCN2C(=O)[C@H](Cc2cccc(F)c2)NC1=O` in this work.
An IC50 of 3590 nM was found for `CC(=O)N[C@@H](CO)C(=O)N[C@@H](C)C(=O)N[C@@H](CCCNC(=N)N)C(=O)N[C@@H](Cc1c[nH]c2ccccc12)C(=O)N[C@@H](CCCNC(=N)N)C(=O)N[C@@H](Cc1ccccc1)C(=O)N1CCC[C@H]1C(=O)N[C@@H](C)C(=O)N[C@@H](CCCNC(=N)N)C(=O)N1CCC[C@H]1C(=O)NCC(=O)N[C@H](C(N)=O)[C@@H](C)O` in this work.
An IC50 of 1230 nM was found for `CC(=O)N[C@@H](C)C(=O)N[C@@H](CCCNC(=N)N)C(=O)N[C@@H](Cc1c[nH]c2ccccc12)C(=O)N[C@H]1C/C=C\C[C@@H](C(=O)N2CCC[C@H]2C(=O)N[C@@H](CCCN)C(N)=O)NC(=O)C2(CCC2)NC(=O)[C@@H]2CCCN2C(=O)[C@H](Cc2cccc(F)c2)NC1=O` (Ac-ARW[AllylGly][Phe(3-F)]P[Ac4c][AllylGly]P[Orn]-NH2; staple (Z) 4-8) in this work.
An IC50 of 58 nM was found for `CC(=O)N[C@@H](C)C(=O)N[C@@H](CCCNC(=N)N)C(=O)N[C@@H](Cc1c[nH]c2ccccc12)C(=O)N[C@H]1C/C=C\C[C@@H](C(=O)N2CCC[C@H]2C(=O)N[C@@H](CCCN)C(=O)N[C@@H](CCCNC(=N)N)C(N)=O)NC(=O)C2(CCC2)NC(=O)[C@@H]2CCCN2C(=O)[C@H](Cc2cccc(F)c2)NC1=O` (Ac-ARW[AllylGly][Phe(3-F)]P[Ac4c][AllylGly]P[Orn]R-NH2; staple (Z) 4-8) in this work.
An IC50 of 2.35 nM was found for `CC(=O)N[C@@H](C)C(=O)N[C@@H](CCCNC(=N)N)C(=O)N[C@@H](Cc1c[nH]c2ccccc12)C(=O)N[C@H]1C/C=C\C[C@@H](C(=O)N2CCC[C@H]2C(=O)N[C@@H](CCCN)C(=O)N[C@@H](CCCNC(=N)N)C(=O)N[C@@H](CCCNC(=N)N)C(=O)N[C@@H](CCCNC(=N)N)C(N)=O)NC(=O)C2(CCC2)NC(=O)[C@@H]2CCCN2C(=O)[C@H](Cc2cccc(F)c2)NC1=O` (Ac-ARW[AllylGly][Phe(3-F)]P[Ac4c][AllylGly]P[Orn]RRR-NH2; staple (Z) 4-8) in this work.
An IC50 of 777 nM was found for `CC(=O)N[C@@H](CO)C(=O)N[C@@H](C)C(=O)N[C@@H](CCCNC(=N)N)C(=O)N[C@@H](Cc1c[nH]c2ccccc12)C(=O)N[C@H]1C/C=C\C[C@@H](C(=O)N2CCC[C@H]2C(=O)N[C@@H](CCCN)C(N)=O)NC(=O)C2(CCC2)NC(=O)[C@@H]2CCCN2C(=O)[C@H](Cc2cccc(F)c2)NC1=O` (Ac-SARW[AllylGly][Phe(3-F)]P[Ac4c][AllylGly]P[Orn]-NH2; staple (Z) 5-9) in this work.
An IC50 of 49 nM was found for Ac-RWRFPARPGTGRR-NH2 in this work.

These compounds were tested against T1, Menin/Histone-lysine N-methyltransferase MLL (assay: Inhibition of Menin-MLL protein-protein interaction (unknown origin) preincubated for 1 hr in presence of FLSN-MBM1 peptide followed by compound addition and measured after 1 hr by fluorescence polarization assay).
An IC50 of 660 nM was found for `CC(=O)N[C@@H](CO)C(=O)N[C@@H](C)C(=O)N[C@@H](CCCNC(=N)N)C(=O)N[C@@H](Cc1c[nH]c2ccccc12)C(=O)N[C@H]1CCCCCC[C@@H](C(=O)N2CCC[C@H]2C(=O)N[C@@H](CCCNC(=N)N)C(N)=O)NC(=O)[C@H](C)NC(=O)[C@@H]2CCCN2C(=O)[C@H](Cc2ccccc2)NC1=O` in this work.
An IC50 of 122 nM was found for `CC(=O)N[C@@H](CO)C(=O)N[C@@H](C)C(=O)N[C@@H](CCCNC(=N)N)C(=O)N[C@@H](Cc1c[nH]c2ccccc12)C(=O)N[C@H]1CCCC[C@@H](C(=O)N2CCC[C@H]2C(=O)N[C@@H](CCCNC(=N)N)C(N)=O)NC(=O)[C@H](C)NC(=O)[C@@H]2CCCN2C(=O)[C@H](Cc2ccccc2)NC1=O` in this work.
An IC50 of 84 nM was found for `CC(=O)N[C@@H](CO)C(=O)N[C@@H](C)C(=O)N[C@@H](CCCNC(=N)N)C(=O)N[C@@H](Cc1c[nH]c2ccccc12)C(=O)N[C@@H](CCCNC(=N)N)C(=O)N[C@@H](Cc1ccccc1)C(=O)N1CCC[C@H]1C(=O)N[C@@H](C)C(=O)N[C@@H](CCCNC(=N)N)C(=O)N1CCC[C@H]1C(=O)NCC(=O)N[C@H](C(N)=O)[C@@H](C)O` in this work.
An IC50 of 151 nM was found for `CC(=O)N[C@@H](C)C(=O)N[C@@H](CCCNC(=N)N)C(=O)N[C@@H](Cc1c[nH]c2ccccc12)C(=O)N[C@H]1C/C=C\C[C@@H](C(=O)N2CCC[C@H]2C(=O)N[C@@H](CCCNC(=N)N)C(N)=O)NC(=O)[C@H](C)NC(=O)[C@@H]2CCCN2C(=O)[C@H](Cc2ccccc2)NC1=O` (Ac-ARW[AllylGly]FPA[AllylGly]PR-NH2; staple (Z) 4-8) in this work.
An IC50 of 372 nM was found for `CC(=O)N[C@@H](CCCNC(=N)N)C(=O)N[C@@H](Cc1c[nH]c2ccccc12)C(=O)N[C@H]1C/C=C\C[C@@H](C(=O)N2CCC[C@H]2C(=O)N[C@@H](CCCNC(=N)N)C(N)=O)NC(=O)[C@H](C)NC(=O)[C@@H]2CCCN2C(=O)[C@H](Cc2ccccc2)NC1=O` (Ac-RW[AllylGly]FPA[AllylGly]PR-NH2; staple (Z) 3-7) in this work.
An IC50 of 6800 nM was found for `CC(=O)N[C@@H](CO)C(=O)N[C@@H](C)C(=O)N[C@@H](CCCNC(=N)N)C(=O)N[C@@H](Cc1c[nH]c2ccccc12)C(=O)N[C@H]1C/C=C\C[C@@H](C(=O)N2CCC[C@H]2C(N)=O)NC(=O)[C@H](C)NC(=O)[C@@H]2CCCN2C(=O)[C@H](Cc2ccccc2)NC1=O` (Ac-SARW[AllylGly]FPA[AllylGly]P-NH2; staple (Z) 5-9) in this work.
An IC50 of 41000 nM was found for `CC(=O)N[C@@H](CO)C(=O)N[C@@H](C)C(=O)N[C@@H](CCCNC(=N)N)C(=O)N[C@@H](Cc1c[nH]c2ccccc12)C(=O)N[C@H]1C/C=C\C[C@@H](C(=O)N2CCC[C@H]2C(=O)NCC(=O)N[C@H](C(N)=O)[C@@H](C)O)NC(=O)[C@H](C)NC(=O)[C@@H]2CCCN2C(=O)[C@H](Cc2ccccc2)NC1=O` (Ac-SARW[AllylGly]FPA[AllylGly]PGT-NH2; staple (Z) 5-9) in this work.
An IC50 of 1390 nM was found for `CC(=O)N[C@@H](CO)C(=O)N[C@@H](C)C(=O)N[C@@H](CCCNC(=N)N)C(=O)N[C@@H](Cc1c[nH]c2ccccc12)C(=O)N[C@H]1C/C=C\C[C@@H](C(=O)N2CCC[C@H]2C(=O)N[C@@H](CCCCN)C(N)=O)NC(=O)[C@H](C)NC(=O)[C@@H]2CCCN2C(=O)[C@H](Cc2ccccc2)NC1=O` (Ac-SARW[AllylGly]FPA[AllylGly]PK-NH2; staple (Z) 5-9) in this work.
An IC50 of 770 nM was found for `CC(=O)N[C@@H](CO)C(=O)N[C@@H](C)C(=O)N[C@@H](CCCNC(=N)N)C(=O)N[C@@H](Cc1c[nH]c2ccccc12)C(=O)N[C@H]1C/C=C\C[C@@H](C(=O)N2CCC[C@H]2C(=O)N[C@@H](CCCNC(=N)N)C(N)=O)NC(=O)[C@H](C)NC(=O)[C@@H]2CCCN2C(=O)[C@H](Cc2ccccc2)NC1=O` (Ac-SARW[AllylGly]FPA[AllylGly]PR-NH2; staple (Z) 5-9) in this work.
An IC50 of 1800 nM was found for `CC(=O)N[C@@H](CO)C(=O)N[C@@H](C)C(=O)N[C@@H](CCCNC(=N)N)C(=O)N[C@@H](Cc1c[nH]c2ccccc12)C(=O)N[C@H]1C/C=C\C[C@@H](C(=O)N2CCC[C@H]2C(=O)N[C@@H](CCCNC(=N)N)C(=O)N[C@H](C(N)=O)[C@@H](C)O)NC(=O)[C@H](C)NC(=O)[C@@H]2CCCN2C(=O)[C@H](Cc2ccccc2)NC1=O` (Ac-SARW[AllylGly]FPA[AllylGly]PRT-NH2; staple (Z) 5-9) in this work.
An IC50 of 142 nM was found for `CC(=O)N[C@@H](CO)C(=O)N[C@@H](C)C(=O)N[C@@H](CCCNC(=N)N)C(=O)N[C@@H](Cc1c[nH]c2ccccc12)C(=O)N[C@H]1C/C=C\C[C@@H](C(=O)N2CCC[C@H]2C(=O)N[C@@H](CCCN)C(N)=O)NC(=O)[C@H](C)NC(=O)[C@@H]2CCCN2C(=O)[C@H](Cc2ccccc2)NC1=O` (Ac-SARW[AllylGly]FPA[AllylGly]P[Orn]-NH2; staple (Z) 5-9) in this work.
An IC50 of 3000 nM was found for `CC(=O)N[C@@H](CO)C(=O)N[C@@H](C)C(=O)N[C@@H](CCCNC(=N)N)C(=O)N[C@@H](Cc1c[nH]c2ccccc12)C(=O)N[C@H]1C/C=C\CC[C@@H](C(=O)N2CCC[C@H]2C(=O)N[C@@H](CCCNC(=N)N)C(N)=O)NC(=O)[C@H](C)NC(=O)[C@@H]2CCCN2C(=O)[C@H](Cc2ccccc2)NC1=O` (Ac-SARW[AllylGly]FPA[Hag]PR-NH2; staple (Z) 5-9) in this work.
An IC50 of 83 nM was found for `CC(=O)N[C@@H](CO)C(=O)N[C@@H](C)C(=O)N[C@@H](CCCNC(=N)N)C(=O)N[C@@H](Cc1c[nH]c2ccccc12)C(=O)N[C@H]1C/C=C\C[C@@H](C(=O)N2CCC[C@H]2C(=O)N[C@@H](CCCNC(=N)N)C(N)=O)NC(=O)C2(CCC2)NC(=O)[C@@H]2CCCN2C(=O)[C@H](Cc2ccccc2)NC1=O` (Ac-SARW[AllylGly]FP[Ac4c][AllylGly]PR-NH2; staple (Z) 5-9) in this work.
An IC50 of 281 nM was found for `CC(=O)N[C@@H](CO)C(=O)N[C@@H](C)C(=O)N[C@@H](CCCNC(=N)N)C(=O)N[C@@H](Cc1c[nH]c2ccccc12)C(=O)N[C@H]1C/C=C\C[C@@H](C(=O)N2CCC[C@H]2C(=O)N[C@@H](CCCNC(=N)N)C(N)=O)NC(=O)[C@H](C)NC(=O)[C@@H]2CCCN2C(=O)[C@H](Cc2cccc(F)c2)NC1=O` (Ac-SARW[AllylGly][Phe(3-F)]PA[AllylGly]PR-NH2; staple (Z) 5-9) in this work.
An IC50 of 1100 nM was found for `CC(=O)N[C@@H](CO)C(=O)N[C@@H](C)C(=O)N[C@@H](CCCNC(=N)N)C(=O)N[C@@H](Cc1c[nH]c2ccccc12)C(=O)N[C@H]1CC/C=C\CC[C@@H](C(=O)N2CCC[C@H]2C(=O)N[C@@H](CCCNC(=N)N)C(N)=O)NC(=O)[C@H](C)NC(=O)[C@@H]2CCCN2C(=O)[C@H](Cc2ccccc2)NC1=O` (Ac-SARW[Hag]FPA[Hag]PR-NH2; staple (Z) 5-9) in this work.
An IC50 of 77700 nM was found for `CC(=O)N[C@@H](Cc1c[nH]c2ccccc12)C(=O)N[C@H]1C/C=C\C[C@@H](C(=O)N2CCC[C@H]2C(=O)N[C@@H](CCCNC(=N)N)C(N)=O)NC(=O)[C@H](C)NC(=O)[C@@H]2CCCN2C(=O)[C@H](Cc2ccccc2)NC1=O` (Ac-W[AllylGly]FPA[AllylGly]PR-NH2; staple (Z) 2-6) in this work.
An IC50 of 19000 nM was found for Ac-SARWAFPAAP-NH2 in this work.
An IC50 of 61300 nM was found for Ac-SARWAFPAAPGT-NH2 in this work.
An IC50 of 1700 nM was found for Ac-SARWAFPAAPRT-NH2 in this work.
An IC50 of 1300 nM was found for Ac-SARWAFPAGPR-NH2 in this work.

— ChEMBL document CHEMBL4765443, “Covalent and noncovalent constraints yield a figure eight-like conformation of a peptide inhibiting the menin-MLL interaction” (Eur J Med Chem, 2020)
